Target: T1, NT-26 arsenite oxidase (NT-26 Aio) (Pseudorhizobium banfieldiae, UniProt Q6VAL8)
T1 construct: gene aroA; A subunit with Mo site and [3Fe-4S], B subunit with Rieske [2Fe-2S]; with Arsenite oxidase subunit AioB
Assay type: binding

O[As](O)O [arsenite] was tested, and the “Mo....As EXAFS interaction” value was “suggesting the presence of bound substrate or product through a Mo—O—As linkage”.

Source: article PMC5432002, “The active site structure and catalytic mechanism of arsenite oxidase” (Scientific Reports, 2017)
